Values of other authors, collected in patent US8338383B1, “Use of immunomodulators for the treatment of cancer” (priority 2012, dated 2012).

Tested on: patients with advanced pancreatic cancer
Details: survival from study enrollment to death from any cause

SMILES	increased median survival versus 5-FU [months]	median Overall Survival [months]
Nc1ccn([C@@H]2O[C@H](CO)[C@@H](O)C2(F)F)c(=O)n1 [gemcitabine, Gemcitabine]	1.5	5.7
O=c1[nH]cc(F)c(=O)[nH]1 [5-FU, 5-fluorouracil]		4.2
